Results taken from US6465259B1, “Non radioactive receptor assay suitable for quantitative and qualitative analysis of trace amounts of receptor binding analyte” (Merska B.V., priority 1999, dated 2002).
Read-outs that look alike come from different tables or passages of the source.

Columns and labels:
[1] = system: benzodiazepine receptor; conditions: rat receptor material, cited from earlier work
[2] = target: T1, benzodiazepine receptor; experiment: Fluorescent receptor assay for benzodiazepines, calibration curves with FLB as labeled ligand; type: binding, calf; conditions: 7.3 nM
T1 construct: IC50; other: FLB as labeled ligand, 7.3 nM; Bmax; other: saturation with FLB; other: [3H]flunitrazepam as labeled ligand, 2.2 nM; other: FLB assay concentration 7.3 nM; recov

[3] = target: T1, benzodiazepine receptor; experiment: Radioligand binding assay with [3H]flunitrazepam; design: species or system calf
Procedure: Calf brains, obtained from the slaughtcrhouse and stored at −80° C. after discarding the cerebellum, were homogenized in 6 volunmes (w/v) of ice-cold 0.32 M sucrose in a Potter-Elvehjem homogenizer (RW 20 DZW. Janke & Kunkel K G, Staufen i. Breisgau, Germany) fitted with a teflon pestle and centrifuged for 10 min at 1,000 ×g in a Beckman L8-55 Ulcracentrifuge (Beckman Instruments, Mijdrecht, The Netherlands). The supernatant was centrifuged for 60 min at 100,000×g. The resulting pellet (P2) was resuspended in sodium phosphate buffer (pH 7.4; 50 mM) and centrifuged for 30 min at 100,000×g. This washing step was repeated four times. All operations were performed at 4° C. […]
The filters of a MultiScreen-FB filtration plate were pre-wetted by pipetting 200 μl ice-cold Tris-HCl buffer (pH 7.4; 50 mm) into each well. […] After shaking the vials, the radioactivity was counted for 5 min in a Tri-Carb 4000 Packard scintillation counter (Canberra Packard, Groningen, The Netherlands). […]
The saturation and inhibition curves for both the radioactive labeled benzodiazepine [^3H]flunitrazepam and the fluorescent labeled benzodiazepine. […] The specific binding was calculated by subtracting the non-specific binding from the total binding. […] The Bmax value was calculated to be 3.42±0.01 nM, which corresponds to 3.84±0.09 pM/mg protein. […]

[4] = target: benzodiazepine receptor; conditions: cited from earlier work
[5] = system: benzodiazepine receptor; experiment: Fluorescent binding assay, saturation experiments with FLB; design: species or system calf; conditions: free initial concentration of 15 nM
Procedure: (§1) Calf brains, obtained from the slaughtcrhouse and stored at −80° C. after discarding the cerebellum, were homogenized in 6 volunmes (w/v) of ice-cold 0.32 M sucrose in a Potter-Elvehjem homogenizer (RW 20 DZW. Janke & Kunkel K G, Staufen i. Breisgau, Germany) fitted with a teflon pestle and centrifuged for 10 min at 1,000 ×g in a Beckman L8-55 Ulcracentrifuge (Beckman Instruments, Mijdrecht, The Netherlands). The supernatant was centrifuged for 60 min at 100,000×g. The resulting pellet (P2) was resuspended in sodium phosphate buffer (pH 7.4; 50 mM) and centrifuged for 30 min at 100,000×g. This washing step was repeated four times. All operations were performed at 4° C. The washed P2-pellet was resuspended in 5 volumes (w/v) phosphate buffer, frozen with liquid nitrogen and lyophilized (Hetosicc CD 52-1, Heto, Birkerød, Denmark) . rhe lyophilized P2-pellet was stored at −20° C. For the receptor binding assays, the lyophilized P2-pellet was resuspended in Tris-HCl buffer (pH 7.4; 50 mM) with the glass-teflon Potter homogenizer (3.5 mg/inl).
(§2) For the saturation experiments, 25 μl FLB solution (0.5-50 nM final concentration) in Tris-HCl buffer (pH 7.4; 50 mM) were pipetted in duplicate in the wells of the filtration plate after pre-wetting the filters. […] To this mixture, 200 μl of the receptor suspension (225 μg protein per assay) were added and the plate was shaken for 1 min. […] Hundred μl of the filtrates were analyzed with the above described HPLC-method.
(§3) The saturation and inhibition curves for both the radioactive labeled benzodiazepine [^3H]flunitrazepam and the fluorescent labeled benzodiazepine. […] The specific binding was calculated by subtracting the non-specific binding from the total binding. […] The Bmax value was calculated to be 3.42±0.01 nM, which corresponds to 3.84±0.09 pM/mg protein. […] After binding of BD 623 to the receptor, the fluorescence intensity is decreased and from the level of fluorescence quenching the amount of bound BD 623 can be estimated. […]

[6] = system: T1, benzodiazepine receptor; experiment: as above; design: species or system calf
Procedure: as §1, §2, §3

[7] = target: benzodiazepine receptor; experiment: Affinity for the benzodiazepine receptor, method not described; type: binding; conditions: FIG. 1 legend
[8] = target: benzodiazepine receptor; conditions: McCabe et al. [h]; cited from earlier work

## CCOC(=O)c1ncn2c1CN(C)C(=O)c1cc(F)ccc1-2 [[^3H]flumazenil]
[1]; filtration
  Bmax: 2.3 nM

## CN1C(=O)CN=C(c2ccccc2)c2cc(Cl)ccc21 [diazepam]
[2]
  IC50: 41 ± 7 nM

## O=C1Nc2ccc(Cl)cc2C(c2ccccc2Cl)=NC1O (stereo not shown) [lorazepam]
[3]; [3H]flunitrazepam as labeled ligand, 2.2 nM
  IC50: 6.61 ± 0.69 nM
[2]
  IC50: 7.2 ± 0.5 nM

## AMCA-didesethylflurazepam [AMCA-Ro7-1986]
[4]; from reference [b]
  Ki: 8.6 nM
[4]; reference [b]
  non-specific binding: 20%

## Mmc-O—CO—(CH2)3-Ro15-3890 [FLB]
[3]; read-out: Ki-value, inhibition assays with [3H]flunitrazepam
  Ki: 6.5 nM
[5]
  non-specific binding, % of the total binding: 25%
[6]; FLB assay concentration 7.3 nM
  added FLB bound to the receptors (total binding): 26%
[6]; saturation curve, one-binding site model, read-out: binding affinity (Kd) for the benzodiazepine receptor
  Kd: ~7.3 nM

## NBD-NH—(CH2)3-Ro15-3890 [BD 623]
[7]
  Ki: 5.7 nM
[1]; fluorescence quenching, no bound/unbound separation
  Bmax: 7.2 nM

## fluorescein-NH—(CH2)3-Ro15-3890 [BD 621]
[8]
  Kd: 63 nM
